Experimental data from US6984404B1, “Methods for preparing coated drug particles and pharmaceutical formulations thereof” (University of Florida Research Foundation, Inc., priority 1998, dated 2006).
“And” between values parts separate entries of the source, which are not always exact repeats. Identical values can stand only once. Like-named read-outs stand apart in the source and are kept apart here.

Key:
[1] = cited from earlier work; for half-life after intravenous administration: intravenous (FP: terminal half-life)
[2] = cited from earlier work; for pulmonary deposition ratio, MDI: metered dose inhaler (TA: Azmacort MDI with spacer)
plasma protein = details: cited from earlier work
[3] = rats; cited from earlier work
[4] = target: T1, glucocorticoid receptor (GR) (Homo sapiens, UniProt P04150); details: cited from earlier work
T1 sequence (P04150 1-777): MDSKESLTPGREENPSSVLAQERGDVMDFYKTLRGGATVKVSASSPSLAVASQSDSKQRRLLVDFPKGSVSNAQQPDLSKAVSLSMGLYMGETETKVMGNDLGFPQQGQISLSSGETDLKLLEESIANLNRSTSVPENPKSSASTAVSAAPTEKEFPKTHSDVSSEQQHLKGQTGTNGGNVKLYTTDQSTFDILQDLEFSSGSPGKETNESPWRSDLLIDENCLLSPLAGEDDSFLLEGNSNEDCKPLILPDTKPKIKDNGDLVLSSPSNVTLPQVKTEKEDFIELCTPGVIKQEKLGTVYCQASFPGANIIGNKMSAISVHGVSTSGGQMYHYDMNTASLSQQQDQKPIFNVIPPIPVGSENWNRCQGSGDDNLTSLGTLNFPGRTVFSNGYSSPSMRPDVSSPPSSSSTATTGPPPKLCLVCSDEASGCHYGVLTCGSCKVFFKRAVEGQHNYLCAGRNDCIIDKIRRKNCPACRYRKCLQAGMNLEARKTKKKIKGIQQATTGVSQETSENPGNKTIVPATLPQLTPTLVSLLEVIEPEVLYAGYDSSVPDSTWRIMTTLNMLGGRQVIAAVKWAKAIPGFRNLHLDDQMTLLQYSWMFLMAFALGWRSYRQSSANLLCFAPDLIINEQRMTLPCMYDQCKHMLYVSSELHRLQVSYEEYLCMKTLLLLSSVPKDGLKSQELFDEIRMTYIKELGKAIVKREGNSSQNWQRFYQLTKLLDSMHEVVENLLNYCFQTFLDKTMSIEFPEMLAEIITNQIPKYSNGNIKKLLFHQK

[5] = Plasma concentration after intratracheal administration in rats; assay type: in vivo
Method: Characterization of films deposited on silicon wafers or glass slides was performed using SEM. FTIR, and NMR to characterize polymer structure and morphology. The BUD10 and BUD25 coated powders were tested in vitro to assess differences in the dissolution rates. […] Comparison of the plasma concentrations after IT administration of the coated powders with uncoated BUD powders and IV administration of BUD solution, as well as with FP after IT administration, were performed to compare absorption rates. Finally, the pulmonary targeting of coating BUD25 powders after IT administration was compared with the pulmonary targeting of uncoated BUD and FP powders after IT administration and BUD solution after IV administration. Verification of deposited polymer on silicon wafers using NMR and FTIR was used to characterize molecular structure.

Molecule: CC1(C)O[C@@H]2C[C@H]3[C@@H]4CCC5=CC(=O)C=C[C@]5(C)[C@@]4(F)[C@@H](O)C[C@]3(C)[C@]2(C(=O)CO)O1 [TA, triamcinolone acetonide]
- mean residence time ([1]; after intravenous administration): 2.7 h
- absorption of suspension in the lungs ([1]; by the difference in half-lives of intravenous versus inhaled doses): ~2 h
- oral bioavailability ([1]; in vivo): 20–25%
- clearance ([1]; in vivo): 37.3 L/h
- volume of distribution ([1]; in vivo): 100 to 150 L
- half-life after inhaled dose ([1]; inhaled): 3.6 h
- half-life after intravenous administration [1]: 1.4 to 2.0 h
- pulmonary deposition ratio, MDI [2]: approximately 22%
- plasma protein binding (plasma protein): 71%

Molecule: Triamcinolone acetonide phosphate [TAP]
- plasma half-life ([1]; IV administration in humans): 0.05 to 0.067 h

Molecule: CC(C)NCC(O)c1ccc(O)c(O)c1 (stereo not shown) [free isopreternol, isoproterenol]
- duration of amelioration of bronchoconstriction [3]: 30 min

Molecule: CCC(=O)O[C@]1(C(=O)SCF)[C@H](C)C[C@H]2[C@@H]3C[C@H](F)C4=CC(=O)C=C[C@]4(C)[C@@]3(F)[C@@H](O)C[C@@]21C [FP, fluticasone propionate]
- t1/2 (dose-dependent) ([1]; Möllmann et al., 1998): 5.2 to 7.4 h and 6.0 ± 0.7 h
- terminal half-life after inhalation ([1]; Thorsson et al. 1997): 10 h
- mean absorption time (MAT) ([1]; after inhalation): 4.9 h
- oral bioavailability ([1]; in vivo): less than 1%
- clearance ([1]; in vivo): 66 L/h
- drug excreted in the feces ([1]; in vivo): 87–100%
- excreted as the inactive 17-carboxylic acid ([1]; in vivo): 340%
- volume of distribution at steady state ([1]; in vivo): 318 L
- overall bioavailability after inhalation ([1]; inhalation): 10–15%
- mean residence time after inhaled administration (AUMC/AUC) ([1]; inhaled): 9.1 ± 1.1 h and 7.8 to 11 h
- half-life after intravenous administration [1]: 7.7 to 8.3 h
- pulmonary deposition ratio, DPI ([2]; dry powder inhaler): 15%
- pulmonary deposition ratio, MDI [2]: 26%
- receptor binding affinity (RBA) [4]: 1800
- plasma protein binding (plasma protein): 90%

Molecule: CCCC1O[C@@H]2C[C@H]3[C@@H]4CCC5=CC(=O)C=C[C@]5(C)[C@H]4[C@@H](O)C[C@]3(C)[C@]2(C(=O)CO)O1 (stereo partly shown) [Budesonide, budesonide]
- Cmax ([1]; after inhalation via Turbohaler): 3.5 nM
- plasma half-life ([1]; approximately the same after intravenous and inhalation administration): 2.8 h
- oral bioavailability ([1]; in vivo): 11%
- volume of distribution at steady state ([1]; in vivo): 183 L
- first-pass metabolism of an oral dose ([1]; oral): About 89%
- time of peak plasma concentration [5]: 0.5 h
- MAT ([5]; calculated): 0.3 h
- plasma protein binding (plasma protein): 88%
